{"source": "patent US20030092757A1", "about": "“Favorable modulation of health-related quality of life and health-related quality-adjusted time-to-progression of disease in patients with prostate cancer” (priority 2001, published 2003)", "key": {"[1]": {"tested_on": "patients having hormone refractory prostate cancer (HRPCa)", "assay": "Area under the Curve (AUC) analysis of health-related QoL domain scores, one year follow-up assumed", "type": "in vivo, human", "description": "The Kaplan-Meier product limit method may provide biased results if study data are obtained under certain conditions such as staggered entry of subjects into the study and/or incomplete follow-up (Biometrics. 1989; 5:781-795). Thus, a second analysis was implemented to verify that the conclusions derived from the Kaplan-Meier method would remain robust to the length of follow-up. The assumption was that all patients were followed for one year. Patients who discontinued from the study prior to one year of observation had their last observation for all health-related QoL domains carried forward through the remainder of the year. Similarly, patients who had not completed one year of observation had their health-related QoL data carried forward through one year. If the patient experienced a clinical event within the one year period, the last observation was not carried forward. The Area under the Curve (AUC) value for each domain was computed by multiplying the health-related QoL domain score by the respective duration of that score. Finally, AUC values were aggregated across all subjects within each respective treatment group (atrasentan (10 mg), atrasentan (2.5 mg), and placebo). Aggregated AUC values for each domain were compared for differences between treatment groups using a t-test."}, "[2]": {"tested_on": "patients having hormone refractory prostate cancer (HRPCa)", "assay": "Time to disease or PSA progression across treatment groups", "type": "in vivo, human", "details": "intent-to-treat population", "description": "Patients received treatment with 10 mg (N=89) or 2.5 mg (N=95) of atrasentan or placebo (N=104) until experiencing a clinical event indicative of disease progression such as palliative opiate treatment of new bone or visceral pain, palliative radiation treatment of new bone pain, or new tumor growth symptoms requiring intervention or treatment with chemotherapy."}}, "data": [{"smiles": "CCCCN(CCCC)C(=O)CN1C[C@H](c2ccc3c(c2)OCO3)[C@@H](C(=O)O)[C@@H]1c1ccc(OC)cc1", "note": "[atrasentan, (2R,3R,4S)-2-(4-methoxyphenyl)-4-(1,3-benzodioxol-5-yl)-1-(((N,N-dibutylamino)carbonyl)methyl)pyrrolidine-3-carboxylic acid]", "values": [{"measurement": "AUC results", "setting": "[1]; 2.5 mg, except for dyspnea, social/family, functional well-being, and FACT-P domain scores", "value": "significantly improved"}, {"measurement": "AUC analysis, responses in the 10 mg and 2.5 mg treatment groups", "setting": "[1]; 10 mg vs 2.5 mg", "value": "not statistically differentiable"}, {"measurement": "AUC analysis, atrasentan treatment vs placebo groups", "setting": "[1]; Intent to Treat population", "value": "no statistical differences"}, {"measurement": "AUC analysis vs placebo", "setting": "[1]; per-protocol population, every health-related QoL domain score", "value": "strong trends in favor"}, {"measurement": "AUC for the health-related QoL domain scores", "setting": "[1]; physical functioning, social functioning, and pain, p<0.05", "value": "significantly longer"}, {"measurement": "differences in either the time to disease or PSA progression across treatment groups", "setting": "[2]", "value": "no statistically significant differences"}]}]}
